Measured values published in PMC6199744, “Development of Chemical Proteomics for the Folateome and Analysis of the Kinetoplastid Folateome” (ACS Infectious Diseases, 2018).
Where “and” joins values, the source holds several entries; their conditions need not be identical. Equal values may be shown once. Read-outs that look alike come from different tables or passages of the source.

Test system: T. brucei lysate proteins
Assay type: binding, Trypanosoma brucei

SMILES: Nc1nc2c(c(=O)[nH]1)N(C=O)C(CNc1ccc(C(=O)N[C@@H](CCC(=O)O)C(=O)O)cc1)CN2 (stereo partly drawn) [LEU, leucovorin]
- fold change vs vehicle control: 0.89 and 1.1 and 1.13
- fold change (protein CZB00000046.1 HA-UBIQUITIN, vehicle control = 1): 0.69
- fold change (protein CZT00008884.1 […]-ASSOCIATED GENE 3 (ESAG3) PROTEIN, vehicle control = 1): 1.21
- fold change (protein CZT00018965.1 RETRO[…] (RHS) PROTEIN 1, vehicle control = 1): 1.3
- fold change vs vehicle control (protein TB09.160.3270 ATP-DEPENDENT DEAD BOX HELICASE, PUTATIVE, vehicle control = 1): 1.53
- fold change (protein TB09.160.3710 PRO[…] NUCLEAR ANTIGEN (PCNA), PUTATIVE, vehicle control = 1): 1
- fold change vs vehicle control (protein TB09.160.4200 60S ACIDIC RIBOSOMAL PROTEIN, PUTATIVE, vehicle control = 1): 1.11
- fold change vs vehicle control (protein TB09.160.4250 TR[…], vehicle control = 1): 1.26
- fold change (protein TB09.211.3540 GLYCEROL KINASE, GLYCOSOMAL, vehicle control = 1): 1.39
- fold change (protein TB11.01.0450 PROTEIN PHOSPHATASE 1, PUTATIVE, vehicle control = 1): 0.92
- fold change (protein TB11.01.1690 HY[…], CONSERVED, vehicle control = 1): 1.4
- fold change vs vehicle control (protein TB11.01.2560 40S RIBOSOMAL PROTEIN SA, PUTATIVE, vehicle control = 1): 0.87
- fold change (protein TB11.01.3560 VACUOLAR ATP SYNTHASE SUBUNIT B, PUTATIVE, vehicle control = 1): 0.9
- fold change vs vehicle control (protein TB11.01.4370 HY[…], CONSERVED, vehicle control = 1): 1.1
- fold change (protein TB11.01.5350 PROFILIN, vehicle control = 1): 1.27
- fold change (protein TB11.01.8740 PROTEIN PHOSPHATASE 4, PUTATIVE, vehicle control = 1): 0.73
- fold change vs vehicle control (protein TB11.02.1135 DYNEIN LIGHT CHAIN, PUTATIVE, vehicle control = 1): 1.39
- fold change vs vehicle control (protein TB11.02.2040 HY[…], CONSERVED (ALBA-Domain Protein), vehicle control = 1): 1.42
- fold change vs vehicle control (protein TB11.02.2510 GUANINE NUCLEOTIDE-BINDING BETA SUBUNIT-LIKE PROTEIN, vehicle control = 1): 0.98
- fold change (protein TB11.02.2960 MIT[…] PROTEIN, PUTATIVE, vehicle control = 1): 0.69
- fold change vs vehicle control (protein TB11.02.4170 40S RIBOSOMAL PROTEIN S5, PUTATIVE, vehicle control = 1): 1.44
- fold change vs vehicle control (protein TB11.03.0250 C[…], vehicle control = 1): 1.92
- fold change vs vehicle control (protein TB11.03.0530 HY[…], CONSERVED (hy[…] SCD6.10), vehicle control = 1): 0.99
- fold change vs vehicle control (protein TB427TMP.01.0480 HY[…], CONSERVED, vehicle control = 1): 1.07
- fold change (protein TB427TMP.01.1470 60S RIBOSOMAL PROTEIN L10A, PUTATIVE, vehicle control = 1): 0.96
- fold change vs vehicle control (protein TB427TMP.01.1680 POLYUBIQUITIN, PUTATIVE, vehicle control = 1): 1.44
- fold change (protein TB427TMP.01.2460 HY[…], CONSERVED, vehicle control = 1): 0.97
- fold change vs vehicle control (protein TB427TMP.01.3370 […] PROTEIN, PUTATIVE, vehicle control = 1): 1.11
- fold change vs vehicle control (protein TB427TMP.01.4280 HY[…], CONSERVED, vehicle control = 1): 1.18
- fold change (protein TB427TMP.01.4650 HY[…], CONSERVED, vehicle control = 1): 0.86
- fold change vs vehicle control (protein TB427TMP.01.5680 HY[…], CONSERVED, vehicle control = 1): 1.44
- fold change vs vehicle control (protein TB427TMP.01.5690 DRBD4, vehicle control = 1): 0.99
- fold change (protein TB427TMP.01.5960 MIT[…] PROTEIN, PUTATIVE, vehicle control = 1): 0.85
- fold change (protein TB427TMP.01.6180 HY[…], CONSERVED, vehicle control = 1): 0.75
- fold change vs vehicle control (protein TB427TMP.01.6890 SMALL GTPASE, PUTATIVE, vehicle control = 1): 2.02
- fold change (protein TB427TMP.01.7490 HY[…], CONSERVED, vehicle control = 1): 0.86
- fold change vs vehicle control (protein TB427TMP.01.7530 HY[…], CONSERVED, vehicle control = 1): 1.1
- fold change (protein TB427TMP.01.8390 HY[…], CONSERVED, vehicle control = 1): 0.84
- fold change (protein TB427TMP.01.8570 DYNEIN LIGHT IN[…] D1BLIC, PUTATIVE, vehicle control = 1): 0.9
- fold change (protein TB427TMP.02.0030 DYNEIN HEAVY CHAIN, PUTATIVE, vehicle control = 1): 0.83
- fold change (protein TB427TMP.02.0460 NUCLEOPORIN, vehicle control = 1): 0.84
- fold change (protein TB427TMP.02.0760 DYNEIN HEAVY CHAIN, PUTATIVE, vehicle control = 1): 0.55
- fold change (protein TB427TMP.02.4100 PRETRA[…], ALPHA SUBUNIT, PUTATIVE, vehicle control = 1): 1.41
- fold change vs vehicle control (protein TB427TMP.02.4300 HY[…], CONSERVED, vehicle control = 1): 1.07
- fold change (protein TB427TMP.02.4550 HY[…], CONSERVED, vehicle control = 1): 0.97
- fold change (protein TB427TMP.02.5660 HY[…], CONSERVED, vehicle control = 1): 0.76
- fold change vs vehicle control (protein TB427TMP.02.5720 RIBONUCLEOSIDE-DIPHOSPHATE REDUCTASE LARGE CHAIN, vehicle control = 1): 0.95
- fold change (protein TB427TMP.03.0150 HY[…], CONSERVED, vehicle control = 1): 0.88
- fold change (protein TB427TMP.160.2370 HY[…], CONSERVED, vehicle control = 1): 0.95
- fold change (protein TB427TMP.160.4310 GLUTAMATE DEHYDROGENASE, vehicle control = 1): 0.99
- fold change vs vehicle control (protein TB427TMP.160.4560 ARGININE KINASE, vehicle control = 1): 2.29
- fold change vs vehicle control (protein TB427TMP.160.4620 INOSITOL-1(OR 4)-MONOPHOSPHATASE, PUTATIVE, vehicle control = 1): 1.07
- fold change vs vehicle control (protein TB427TMP.160.4630 HY[…], CONSERVED, vehicle control = 1): 1
- fold change (protein TB427TMP.160.4770 PROTEIN KINASE, PUTATIVE, vehicle control = 1): 0.91
- fold change (protein TB427TMP.160.4910 FLAVOPROTEIN MONOOXYGENASE, PUTATIVE, vehicle control = 1): 0.97
- fold change (protein TB427TMP.160.5670 HY[…], CONSERVED, vehicle control = 1): 0.81
- fold change (protein TB427TMP.211.2730 GIM5A PROTEIN, vehicle control = 1): 1.23
- fold change vs vehicle control (protein TB427TMP.211.3140 HY[…], CONSERVED, vehicle control = 1): 1.57
- fold change vs vehicle control (protein TB427TMP.211.3510 ATP-DEPENDENT DEAD/H RNA HELICASE, PUTATIVE, vehicle control = 1): 0.96
- fold change vs vehicle control (protein TB427TMP.22.0003 PHOSPH[…], PUTATIVE, vehicle control = 1): 0.99
- fold change (protein TB427TMP.46.0001 60S ACIDIC RIBOSOMAL SUBUNIT PROTEIN, PUTATIVE, vehicle control = 1): 0.96
- fold change (protein TB427TMP.47.0011 HY[…], CONSERVED, vehicle control = 1): 0.89
- fold change vs vehicle control (protein TB427TMP.55.0006 INTR[…] PROTEIN IFT88, vehicle control = 1): 1.07
- fold change vs vehicle control (protein TB427TMP.57.0008 CALPAIN-LIKE PROTEIN, PUTATIVE, vehicle control = 1): 0.86
- fold change vs vehicle control (protein TB427.01.120 RETRO[…] SPOT (RHS) PROTEIN, PUTATIVE, vehicle control = 1): 0.97
- fold change (protein TB427.01.2570 COATOMER BETA SUBUNIT, vehicle control = 1): 0.97
- fold change (protein TB427.01.420 RETRO[…] SPOT (RHS) PROTEIN, PUTATIVE, vehicle control = 1): 1.1
- fold change vs vehicle control (protein TB427.02.3880 HET[…] RIBONUC[…]/F, PUTATIVE, vehicle control = 1): 1.3
- fold change vs vehicle control (protein TB427.02.5800 SEDOHEPTULOSE-1,7-BISPHOSPHATASE, vehicle control = 1): 1.36
- fold change vs vehicle control (protein TB427.02.6050 BETA PRIME COP PROTEIN, vehicle control = 1): 1.34
- fold change (protein TB427.03.1790 PYRUVATE DEHYDROGENASE E1 BETA SUBUNIT, PUTATIVE, vehicle control = 1): 0.98
- fold change vs vehicle control (protein TB427.03.3160 POLY(A) POLYMERASE, vehicle control = 1): 1.23
- fold change vs vehicle control (protein TB427.03.3950 HY[…], CONSERVED, vehicle control = 1): 0.86
- fold change vs vehicle control (protein TB427.03.4040 HY[…], CONSERVED (Ankyrinrepeat), vehicle control = 1): 3.1
- fold change (protein TB427.04.1300 HY[…], CONSERVED, vehicle control = 1): 1.3
- fold change vs vehicle control (protein TB427.04.1510 PHOSPHOLIPID-TRA[…], PUTATIVE, vehicle control = 1): 0.95
- fold change vs vehicle control (protein TB427.04.1660 MIT[…] PROTEIN, PUTATIVE, vehicle control = 1): 1
- fold change (protein TB427.04.310 HY[…], CONSERVED, vehicle control = 1): 0.93
- fold change (protein TB427.04.420 PHOSPHATIDYLINOSITOL 3-KINASE (TOR2), vehicle control = 1): 0.74
- fold change (protein TB427.04.450 COATOMER ALPHA SUBUNIT, PUTATIVE, vehicle control = 1): 1.1
- fold change (protein TB427.04.5010 CALRETICULIN, PUTATIVE, vehicle control = 1): 2.06
- fold change (protein TB427.04.5200 NUCLEOPORIN (NUP54/57), PUTATIVE, vehicle control = 1): 0.9
- fold change (protein TB427.05.1210 SHORT-CHAIN DEHYDROGENASE, PUTATIVE, vehicle control = 1): 1.33
- fold change vs vehicle control (protein TB427.05.1320 HY[…], CONSERVED, vehicle control = 1): 1.07
- fold change vs vehicle control (protein TB427.05.1700 R[…] A 28 KDA SUBUNIT, PUTATIVE, vehicle control = 1): 1.31
- fold change vs vehicle control (protein TB427.05.3260 HY[…], CONSERVED, vehicle control = 1): 0.99
- fold change (protein TB427.05.3400 CALCIUM-TRA[…]-TYPE ATPASE, vehicle control = 1): 1.28
- fold change vs vehicle control (protein TB427.05.4560 GUANINE DEAMINASE, PUTATIVE, vehicle control = 1): 0.95
- fold change vs vehicle control (protein TB427.06.1500 ALKYL-DIHYDR[…] SYNTHASE, vehicle control = 1): 0.97
- fold change (protein TB427.06.3500 ENDOSOMAL T[…] RME-8, PUTATIVE, vehicle control = 1): 0.71
